Columns and labels:
Experiment in all cases: radiometric filter-binding kinase assay
RPS6KA5 KD1 KD2 (human) = RPS6KA5 KD1 KD2 (human) (UniProt O75582)
ERBB4 (human) = ERBB4 (human) (UniProt Q15303)
LCK (mouse) = details: accession and sequence are those of the human protein
MARK1 (human) = MARK1 (human) (UniProt Q9P0L2)
DYRK3 (human) = DYRK3 (human) (UniProt O43781)
NEK6 (human) = NEK6 (human) (UniProt Q9HC98)
PRKCZ (human) = PRKCZ (human) (UniProt Q05513)
ROCK2 (rat) = details: accession and sequence are those of the human protein
CaMK1 (human) = CaMK1 (human) (UniProt Q14012)
DYRK1A (human) = DYRK1A (human) (UniProt Q13627)
MST4 (human) = MST4 (human) (UniProt Q9P289)
MST4 (human), sequence (Q9P289 whole entry, looked up): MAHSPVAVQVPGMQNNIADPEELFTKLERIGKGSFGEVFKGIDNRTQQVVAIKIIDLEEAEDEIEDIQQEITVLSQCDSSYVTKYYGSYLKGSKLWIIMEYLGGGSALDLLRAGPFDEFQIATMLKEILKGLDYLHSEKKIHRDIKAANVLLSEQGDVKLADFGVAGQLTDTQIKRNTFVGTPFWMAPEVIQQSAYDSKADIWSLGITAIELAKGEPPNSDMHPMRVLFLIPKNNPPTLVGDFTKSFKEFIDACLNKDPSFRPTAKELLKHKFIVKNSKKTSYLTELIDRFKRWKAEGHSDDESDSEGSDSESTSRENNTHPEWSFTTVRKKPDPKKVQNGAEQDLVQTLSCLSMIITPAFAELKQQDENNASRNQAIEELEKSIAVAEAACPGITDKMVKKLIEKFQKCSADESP

[1] = test system: AKT1 (human), P31749 [S473D]
BTK (human) = BTK (human) (UniProt Q06187)
MAPKAPK5 (human) = MAPKAPK5 (human) (UniProt Q8IW41)
PAK4 (human) = PAK4 (human) (UniProt O96013)
PAK4 (human), sequence (O96013 whole entry, looked up): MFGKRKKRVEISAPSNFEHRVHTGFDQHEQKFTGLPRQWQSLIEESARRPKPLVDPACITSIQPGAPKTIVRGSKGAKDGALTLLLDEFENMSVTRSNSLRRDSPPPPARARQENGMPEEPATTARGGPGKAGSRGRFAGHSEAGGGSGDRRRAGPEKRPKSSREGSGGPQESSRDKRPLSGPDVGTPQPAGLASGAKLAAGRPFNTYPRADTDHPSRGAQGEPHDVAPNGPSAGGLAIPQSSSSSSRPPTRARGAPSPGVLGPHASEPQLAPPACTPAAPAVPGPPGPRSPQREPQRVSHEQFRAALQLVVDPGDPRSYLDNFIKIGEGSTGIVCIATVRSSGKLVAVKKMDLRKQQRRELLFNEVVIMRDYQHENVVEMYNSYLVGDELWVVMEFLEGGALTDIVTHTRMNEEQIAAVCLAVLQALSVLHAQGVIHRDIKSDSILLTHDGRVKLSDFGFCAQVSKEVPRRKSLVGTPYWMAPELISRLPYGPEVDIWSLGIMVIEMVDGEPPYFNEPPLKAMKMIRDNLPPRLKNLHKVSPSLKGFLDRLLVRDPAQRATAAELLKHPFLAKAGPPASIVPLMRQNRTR

MAPK14 (human) = MAPK14 (human) (UniProt Q16539)
NUAK1 (human) = NUAK1 (human) (UniProt O60285)
HIPK1 (human) = HIPK1 (human) (UniProt Q86Z02)
EPHB3 (human) = EPHB3 (human) (UniProt P54753)
MAP3K9 (human) = MAP3K9 (human) (UniProt P80192)
IKBKE (human) = IKBKE (human) (UniProt Q14164)
IKBKE (human), sequence (Q14164 whole entry, looked up): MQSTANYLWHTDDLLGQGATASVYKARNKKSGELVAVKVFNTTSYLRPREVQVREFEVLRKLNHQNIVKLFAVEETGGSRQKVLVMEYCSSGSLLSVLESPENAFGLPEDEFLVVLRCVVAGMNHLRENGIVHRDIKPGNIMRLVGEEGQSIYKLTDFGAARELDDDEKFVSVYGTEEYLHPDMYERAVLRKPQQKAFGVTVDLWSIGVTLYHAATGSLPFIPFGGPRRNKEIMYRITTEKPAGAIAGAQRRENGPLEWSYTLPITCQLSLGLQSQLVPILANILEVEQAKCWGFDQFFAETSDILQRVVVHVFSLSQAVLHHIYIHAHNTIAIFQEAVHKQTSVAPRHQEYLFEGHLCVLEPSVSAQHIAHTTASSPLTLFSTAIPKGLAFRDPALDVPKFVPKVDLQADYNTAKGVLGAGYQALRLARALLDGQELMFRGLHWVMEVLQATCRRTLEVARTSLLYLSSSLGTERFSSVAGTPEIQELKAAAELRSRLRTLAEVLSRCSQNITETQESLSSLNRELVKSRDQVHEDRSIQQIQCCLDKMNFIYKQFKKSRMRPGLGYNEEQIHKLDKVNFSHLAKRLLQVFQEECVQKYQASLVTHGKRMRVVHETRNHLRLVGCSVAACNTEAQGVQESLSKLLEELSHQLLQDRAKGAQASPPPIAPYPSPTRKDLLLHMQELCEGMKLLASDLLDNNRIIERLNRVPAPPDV

PAK7 (human) = PAK7 (human) (UniProt Q9P286)
MAP2K6 (human) = MAP2K6 (human) (UniProt P52564)
MAPK11 (human) = MAPK11 (human) (UniProt Q15759)
TAOK1 (human) = TAOK1 (human) (UniProt Q7L7X3)
EPHA2 (human) = EPHA2 (human) (UniProt P29317)
DYRK2 (human) = DYRK2 (human) (UniProt Q92630)
DYRK2 (human), sequence (Q92630 whole entry, looked up): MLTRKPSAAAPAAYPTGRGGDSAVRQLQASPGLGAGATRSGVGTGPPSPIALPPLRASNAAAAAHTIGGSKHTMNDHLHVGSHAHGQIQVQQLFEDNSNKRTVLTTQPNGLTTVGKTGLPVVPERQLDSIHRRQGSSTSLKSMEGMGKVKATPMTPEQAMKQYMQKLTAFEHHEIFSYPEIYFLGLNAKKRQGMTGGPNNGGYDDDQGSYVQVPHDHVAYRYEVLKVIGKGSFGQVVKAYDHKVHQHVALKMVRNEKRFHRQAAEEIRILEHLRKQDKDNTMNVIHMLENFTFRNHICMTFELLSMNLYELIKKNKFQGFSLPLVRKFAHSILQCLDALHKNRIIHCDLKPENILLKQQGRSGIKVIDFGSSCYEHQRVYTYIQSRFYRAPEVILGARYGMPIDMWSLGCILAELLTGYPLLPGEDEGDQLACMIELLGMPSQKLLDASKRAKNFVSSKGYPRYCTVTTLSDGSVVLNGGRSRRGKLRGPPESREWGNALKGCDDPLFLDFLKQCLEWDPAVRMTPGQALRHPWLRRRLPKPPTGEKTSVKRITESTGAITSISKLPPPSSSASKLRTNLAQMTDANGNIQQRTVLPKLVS

EEF2K (human) = EEF2K (human) (UniProt O00418)
EEF2K (human), sequence (O00418 whole entry, looked up): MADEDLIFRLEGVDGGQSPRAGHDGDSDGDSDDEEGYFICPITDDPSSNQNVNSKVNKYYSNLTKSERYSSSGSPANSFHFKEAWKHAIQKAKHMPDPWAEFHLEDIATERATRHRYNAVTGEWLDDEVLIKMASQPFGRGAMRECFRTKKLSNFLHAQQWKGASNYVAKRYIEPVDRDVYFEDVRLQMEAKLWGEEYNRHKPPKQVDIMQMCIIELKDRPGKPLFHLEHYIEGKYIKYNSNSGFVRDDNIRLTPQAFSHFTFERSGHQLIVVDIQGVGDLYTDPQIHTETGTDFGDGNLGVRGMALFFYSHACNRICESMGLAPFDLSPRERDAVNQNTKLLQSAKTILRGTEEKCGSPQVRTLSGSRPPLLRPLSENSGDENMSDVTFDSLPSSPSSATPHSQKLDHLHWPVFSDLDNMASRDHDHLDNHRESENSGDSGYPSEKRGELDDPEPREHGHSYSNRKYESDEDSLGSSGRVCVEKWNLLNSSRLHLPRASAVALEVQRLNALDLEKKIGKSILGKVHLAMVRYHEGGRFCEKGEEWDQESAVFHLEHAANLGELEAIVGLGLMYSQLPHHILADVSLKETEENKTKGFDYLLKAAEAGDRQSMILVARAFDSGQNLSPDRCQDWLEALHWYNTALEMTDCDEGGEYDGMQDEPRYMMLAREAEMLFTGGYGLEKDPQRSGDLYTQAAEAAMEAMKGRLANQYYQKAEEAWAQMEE

MAPK13 (human) = MAPK13 (human) (UniProt O15264)
DAPK1 (human) = DAPK1 (human) (UniProt P53355)
CSNK2A1 (human) = CSNK2A1 (human) (UniProt P68400)
EPHB1 (human) = EPHB1 (human) (UniProt P54762)
HIPK3 (human) = HIPK3 (human) (UniProt Q9H422)
HIPK3 (human), sequence (Q9H422 whole entry, looked up): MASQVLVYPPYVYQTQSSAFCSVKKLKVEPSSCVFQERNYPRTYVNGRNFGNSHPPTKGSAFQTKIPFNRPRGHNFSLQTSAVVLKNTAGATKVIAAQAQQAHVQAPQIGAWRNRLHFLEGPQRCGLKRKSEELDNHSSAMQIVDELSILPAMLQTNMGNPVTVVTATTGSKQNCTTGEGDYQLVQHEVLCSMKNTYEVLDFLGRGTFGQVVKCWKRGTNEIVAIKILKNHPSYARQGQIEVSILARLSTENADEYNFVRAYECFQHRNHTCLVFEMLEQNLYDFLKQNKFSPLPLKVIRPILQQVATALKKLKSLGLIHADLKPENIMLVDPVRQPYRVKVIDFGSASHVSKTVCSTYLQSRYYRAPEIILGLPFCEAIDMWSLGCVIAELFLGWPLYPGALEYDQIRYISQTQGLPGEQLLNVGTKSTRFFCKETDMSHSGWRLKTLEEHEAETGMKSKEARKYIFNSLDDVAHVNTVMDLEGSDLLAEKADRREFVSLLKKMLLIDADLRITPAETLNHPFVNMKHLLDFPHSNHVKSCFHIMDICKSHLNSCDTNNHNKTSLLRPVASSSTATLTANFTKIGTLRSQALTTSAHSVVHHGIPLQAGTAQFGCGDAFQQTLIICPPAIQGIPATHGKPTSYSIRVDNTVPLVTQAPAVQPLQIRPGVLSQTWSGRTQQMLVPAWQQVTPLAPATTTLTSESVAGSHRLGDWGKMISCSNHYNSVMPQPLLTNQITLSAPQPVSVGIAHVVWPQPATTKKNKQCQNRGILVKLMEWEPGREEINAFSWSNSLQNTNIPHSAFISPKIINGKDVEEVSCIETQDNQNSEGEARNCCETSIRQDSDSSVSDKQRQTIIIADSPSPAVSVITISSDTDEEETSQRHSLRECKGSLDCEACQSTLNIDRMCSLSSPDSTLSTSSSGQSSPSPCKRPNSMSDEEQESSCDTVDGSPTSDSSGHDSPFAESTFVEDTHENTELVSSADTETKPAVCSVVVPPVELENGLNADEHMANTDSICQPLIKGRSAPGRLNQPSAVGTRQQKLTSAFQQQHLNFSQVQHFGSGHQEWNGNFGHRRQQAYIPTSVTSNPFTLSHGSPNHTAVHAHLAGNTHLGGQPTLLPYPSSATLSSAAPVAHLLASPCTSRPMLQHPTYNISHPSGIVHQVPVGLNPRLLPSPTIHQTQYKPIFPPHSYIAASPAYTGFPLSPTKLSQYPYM

HIPK2 (human) = HIPK2 (human) (UniProt Q9H2X6)
MARK3 (human) = MARK3 (human) (UniProt P27448)
PAK6 (human) = PAK6 (human) (UniProt Q9NQU5)

PRKCZ (human), sequence (Q05513 whole entry, looked up): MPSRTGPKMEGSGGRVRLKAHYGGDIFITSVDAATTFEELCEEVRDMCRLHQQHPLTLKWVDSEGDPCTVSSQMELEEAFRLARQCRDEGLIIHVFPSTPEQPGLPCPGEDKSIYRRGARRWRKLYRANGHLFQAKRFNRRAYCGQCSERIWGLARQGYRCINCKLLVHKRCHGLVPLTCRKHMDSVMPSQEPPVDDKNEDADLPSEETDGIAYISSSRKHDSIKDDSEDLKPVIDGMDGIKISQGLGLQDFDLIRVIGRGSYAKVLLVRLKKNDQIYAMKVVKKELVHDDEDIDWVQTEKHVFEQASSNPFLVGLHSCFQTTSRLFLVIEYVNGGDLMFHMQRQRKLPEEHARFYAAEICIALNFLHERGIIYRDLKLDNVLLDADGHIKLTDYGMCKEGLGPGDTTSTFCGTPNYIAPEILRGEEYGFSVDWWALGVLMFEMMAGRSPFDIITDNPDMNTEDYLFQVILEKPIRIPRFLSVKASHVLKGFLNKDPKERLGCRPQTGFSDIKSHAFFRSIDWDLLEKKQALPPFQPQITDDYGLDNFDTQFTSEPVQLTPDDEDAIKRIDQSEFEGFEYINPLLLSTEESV

Structure (SMILES): N#Cc1c(O)c2c(-c3ccc(-c4ccccc4O)cc3)csc2[nH]c1=O
- residual activity (RPS6KA5 KD1 KD2 (human); compound 10.0 µM): 69%
- residual activity (RPS6KA5 KD1 KD2 (human); compound 50.0 µM): 39%
- residual activity (RPS6KA5 KD1 KD2 (human); compound 100.0 µM): 42%
- residual activity (ERBB4 (human); compound 10.0 µM): 33%
- residual activity (ERBB4 (human); compound 100.0 µM): 8%
- residual activity (LCK (mouse); compound 10.0 µM): 88%
- residual activity (LCK (mouse); compound 50.0 µM): 58%
- residual activity (LCK (mouse); compound 100.0 µM): 58%
- residual activity (MARK1 (human); compound 10.0 µM): 59%
- residual activity (MARK1 (human); compound 100.0 µM): 68%
- residual activity (DYRK3 (human); compound 10.0 µM): 54%
- residual activity (DYRK3 (human); compound 50.0 µM): 47%
- residual activity (DYRK3 (human); compound 100.0 µM): 6%
- residual activity (NEK6 (human); compound 10.0 µM): 104%
- residual activity (NEK6 (human); compound 50.0 µM): 94%
- residual activity (NEK6 (human); compound 100.0 µM): 137%
- residual activity (PRKCZ (human); compound 10.0 µM): 96%
- residual activity (PRKCZ (human); compound 50.0 µM): 67%
- residual activity (PRKCZ (human); compound 100.0 µM): 28%
- residual activity (ROCK2 (rat); compound 10.0 µM): 91%
- residual activity (ROCK2 (rat); compound 50.0 µM): 49%
- residual activity (ROCK2 (rat); compound 100.0 µM): 75%
- residual activity (CaMK1 (human); compound 10.0 µM): 68%
- residual activity (CaMK1 (human); compound 50.0 µM): 45%
- residual activity (CaMK1 (human); compound 100.0 µM): 7%
- residual activity (DYRK1A (human); compound 10.0 µM): 75%
- residual activity (DYRK1A (human); compound 50.0 µM): 60%
- residual activity (DYRK1A (human); compound 100.0 µM): 26%
- residual activity (MST4 (human); compound 10.0 µM): 74%
- residual activity (MST4 (human); compound 50.0 µM): 57%
- residual activity (MST4 (human); compound 100.0 µM): 14%
- residual activity ([1]; compound 10.0 µM): 94%
- residual activity ([1]; compound 50.0 µM): 62%
- residual activity ([1]; compound 100.0 µM): 78%
- residual activity (BTK (human); compound 10.0 µM): 52%
- residual activity (BTK (human); compound 100.0 µM): 10%
- residual activity (MAPKAPK5 (human); compound 10.0 µM): 52%
- residual activity (MAPKAPK5 (human); compound 50.0 µM): 25%
- residual activity (MAPKAPK5 (human); compound 100.0 µM): 15%
- residual activity (PAK4 (human); compound 10.0 µM): 52%
- residual activity (PAK4 (human); compound 50.0 µM): 38%
- residual activity (PAK4 (human); compound 100.0 µM): 41%
- residual activity (MAPK14 (human); compound 10.0 µM): 97%
- residual activity (MAPK14 (human); compound 50.0 µM): 122%
- residual activity (MAPK14 (human); compound 100.0 µM): 90%
- residual activity (NUAK1 (human); compound 10.0 µM): 61%
- residual activity (NUAK1 (human); compound 100.0 µM): 10%
- residual activity (HIPK1 (human); compound 10.0 µM): 74%
- residual activity (HIPK1 (human); compound 100.0 µM): 35%
- residual activity (EPHB3 (human); compound 10.0 µM): 81%
- residual activity (EPHB3 (human); compound 100.0 µM): 55%
- residual activity (MAP3K9 (human); compound 10.0 µM): 59%
- residual activity (MAP3K9 (human); compound 100.0 µM): 18%
- residual activity (IKBKE (human); compound 10.0 µM): 69%
- residual activity (IKBKE (human); compound 50.0 µM): 47%
- residual activity (IKBKE (human); compound 100.0 µM): 12%
- residual activity (PAK7 (human); compound 10.0 µM): 58%
- residual activity (PAK7 (human); compound 50.0 µM): 50%
- residual activity (PAK7 (human); compound 100.0 µM): 39%
- residual activity (MAP2K6 (human); compound 10.0 µM): 85%
- residual activity (MAP2K6 (human); compound 100.0 µM): 84%
- residual activity (MAPK11 (human); compound 10.0 µM): 89%
- residual activity (MAPK11 (human); compound 50.0 µM): 84%
- residual activity (MAPK11 (human); compound 100.0 µM): 77%
- residual activity (TAOK1 (human); compound 10.0 µM): 83%
- residual activity (TAOK1 (human); compound 100.0 µM): 18%
- residual activity (EPHA2 (human); compound 10.0 µM): 82%
- residual activity (EPHA2 (human); compound 50.0 µM): 64%
- residual activity (EPHA2 (human); compound 100.0 µM): 40%
- residual activity (DYRK2 (human); compound 10.0 µM): 63%
- residual activity (DYRK2 (human); compound 50.0 µM): 84%
- residual activity (DYRK2 (human); compound 100.0 µM): 33%
- residual activity (EEF2K (human); compound 10.0 µM): 89%
- residual activity (EEF2K (human); compound 50.0 µM): 73%
- residual activity (EEF2K (human); compound 100.0 µM): 64%
- residual activity (MAPK13 (human); compound 10.0 µM): 107%
- residual activity (MAPK13 (human); compound 50.0 µM): 116%
- residual activity (MAPK13 (human); compound 100.0 µM): 124%
- residual activity (DAPK1 (human); compound 10.0 µM): 107%
- residual activity (DAPK1 (human); compound 100.0 µM): 83%
- residual activity (CSNK2A1 (human); compound 10.0 µM): 110%
- residual activity (CSNK2A1 (human); compound 50.0 µM): 95%
- residual activity (CSNK2A1 (human); compound 100.0 µM): 86%
- residual activity (EPHB1 (human); compound 10.0 µM): 110%
- residual activity (EPHB1 (human); compound 100.0 µM): 97%
- residual activity (HIPK3 (human); compound 10.0 µM): 97%
- residual activity (HIPK3 (human); compound 50.0 µM): 52%
- residual activity (HIPK3 (human); compound 100.0 µM): 43%
- residual activity (HIPK2 (human); compound 10.0 µM): 99%
- residual activity (HIPK2 (human); compound 50.0 µM): 58%
- residual activity (HIPK2 (human); compound 100.0 µM): 19%
- residual activity (MARK3 (human); compound 10.0 µM): 78%
- residual activity (MARK3 (human); compound 50.0 µM): 87%
- residual activity (MARK3 (human); compound 100.0 µM): 38%
- residual activity (PAK6 (human); compound 10.0 µM): 69%
- residual activity (PAK6 (human); compound 50.0 µM): 92%
- residual activity (PAK6 (human); compound 100.0 µM): 82%

Source: the kinase profiling compilation of Christmann-Franck et al. (2016)
